One may read the EC50 as the midpoint of the concentration-response curve.

What all share (experiment): luciferase reporter transactivation (zebrafish Aro-B promoter) in transfected U251-MG cells
Holding throughout (assay type): cell-based
Conditions in all cases: agonist; 48 hr, 37°C, 2% charcoal/dextran FCS

The target of assay [1] is T1, zfER-β2 (zebrafish ER-β2) (Danio rerio, UniProt Q7ZU32).
T1 construct: gene esr2a; coding region of receptor cDNA in Topo-pcDNA3 (Menuet et al. 2002), transiently expressed in human U251-MG glial cells; approx. 65 kDa; ER-β2 of Menuet et al. corresponds to esr2a (esr2b is ER-β1)
T1 sequence (Q7ZU32 1-553): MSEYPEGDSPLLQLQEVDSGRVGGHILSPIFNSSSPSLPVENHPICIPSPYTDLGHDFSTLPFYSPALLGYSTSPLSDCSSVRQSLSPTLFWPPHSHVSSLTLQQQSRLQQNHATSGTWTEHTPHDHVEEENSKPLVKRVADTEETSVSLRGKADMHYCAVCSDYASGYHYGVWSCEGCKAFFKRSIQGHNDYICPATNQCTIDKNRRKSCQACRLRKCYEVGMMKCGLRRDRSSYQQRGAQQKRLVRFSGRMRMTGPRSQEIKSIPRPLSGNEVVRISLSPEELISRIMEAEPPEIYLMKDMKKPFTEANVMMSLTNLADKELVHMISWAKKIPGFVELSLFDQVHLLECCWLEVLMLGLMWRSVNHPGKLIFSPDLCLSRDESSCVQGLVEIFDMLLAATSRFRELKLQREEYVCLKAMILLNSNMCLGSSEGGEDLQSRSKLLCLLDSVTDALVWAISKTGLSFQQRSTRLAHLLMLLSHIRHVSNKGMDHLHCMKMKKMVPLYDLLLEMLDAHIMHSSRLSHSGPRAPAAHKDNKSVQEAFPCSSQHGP
An excerpt: luciferase reporter transactivation (zebrafish Aro-B promoter) in transfected U251-MG cells on zfER-β2 (zebrafish ER-β2)

The next assay addresses T2, zfER-α (zebrafish ER-α) (Danio rerio, UniProt P57717).
T2 construct: gene esr1; coding region of receptor cDNA in Topo-pcDNA3 (Menuet et al. 2002), transiently expressed in human U251-MG glial cells; approx. 65 kDa in vitro translated
T2 sequence (P57717 1-569): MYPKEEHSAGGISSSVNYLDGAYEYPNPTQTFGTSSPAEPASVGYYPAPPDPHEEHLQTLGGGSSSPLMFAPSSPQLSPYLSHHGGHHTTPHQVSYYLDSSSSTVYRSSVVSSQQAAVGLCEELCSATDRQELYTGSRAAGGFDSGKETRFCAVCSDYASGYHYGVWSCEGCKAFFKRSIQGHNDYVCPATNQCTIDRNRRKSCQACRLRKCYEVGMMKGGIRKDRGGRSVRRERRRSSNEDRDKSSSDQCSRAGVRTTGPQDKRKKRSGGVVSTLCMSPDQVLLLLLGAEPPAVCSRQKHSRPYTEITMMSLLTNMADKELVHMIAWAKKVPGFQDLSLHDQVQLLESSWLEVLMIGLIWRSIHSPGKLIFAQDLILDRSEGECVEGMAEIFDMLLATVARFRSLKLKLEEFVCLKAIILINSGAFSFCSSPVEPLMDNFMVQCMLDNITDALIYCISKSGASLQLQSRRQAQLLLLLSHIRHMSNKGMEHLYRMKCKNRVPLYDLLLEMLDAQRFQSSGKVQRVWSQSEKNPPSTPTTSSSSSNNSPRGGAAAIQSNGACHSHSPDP
From the text: luciferase reporter transactivation (zebrafish Aro-B promoter) in transfected U251-MG cells on zfER-α (zebrafish ER-α)

Assay [2] deals with T3, zfER-β1 (zebrafish ER-β1) (Danio rerio, UniProt Q5PR29).
T3 construct: gene esr2b; coding region of receptor cDNA in Topo-pcDNA3 (Menuet et al. 2002), transiently expressed in human U251-MG glial cells; approx. 65 kDa; ER-β1 of Menuet et al. corresponds to esr2b (esr2a is ER-β2)
T3 sequence (Q5PR29 1-592): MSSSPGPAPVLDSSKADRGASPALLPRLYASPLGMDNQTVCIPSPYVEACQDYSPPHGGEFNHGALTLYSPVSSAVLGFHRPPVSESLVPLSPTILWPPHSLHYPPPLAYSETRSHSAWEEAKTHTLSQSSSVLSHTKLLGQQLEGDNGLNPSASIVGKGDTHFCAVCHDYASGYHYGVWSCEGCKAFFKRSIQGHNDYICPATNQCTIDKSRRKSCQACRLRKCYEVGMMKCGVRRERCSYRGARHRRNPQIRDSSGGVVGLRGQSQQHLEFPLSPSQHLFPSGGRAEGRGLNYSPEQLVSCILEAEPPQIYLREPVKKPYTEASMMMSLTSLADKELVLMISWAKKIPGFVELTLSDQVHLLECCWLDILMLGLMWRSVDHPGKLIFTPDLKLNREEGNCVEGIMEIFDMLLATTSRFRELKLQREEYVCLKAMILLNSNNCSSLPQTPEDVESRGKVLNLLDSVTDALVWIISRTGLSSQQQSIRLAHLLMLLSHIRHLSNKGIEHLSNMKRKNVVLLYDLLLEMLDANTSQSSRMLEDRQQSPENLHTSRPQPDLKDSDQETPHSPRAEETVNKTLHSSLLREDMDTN
From the text: luciferase reporter transactivation (zebrafish Aro-B promoter) in transfected U251-MG cells on zfER-β1 (zebrafish ER-β1)

On to `C[C@H]1CCC[C@H](O)CCC/C=C/c2cc(O)cc(O)c2C(=O)O1` [α-Zeralenol], for which the values for the EC50 (in assay [1]; on zfER-α (zebrafish ER-α); in assay [2]) were 0.15 nM, 0.59 nM and 0.11 nM, respectively.

Source of the values: publication PMC1459931, “Assessment of Xenoestrogens Using Three Distinct Estrogen Receptors and the Zebrafish Brain Aromatase Gene in a Highly Responsive Glial Cell System” (Environmental Health Perspectives, 2005).
